Experimental data published in ChEMBL document CHEMBL3046763 (J Pestic Sci, 2000).
In brackets after ≈: the same amount, converted by molar mass.

Tests used:
Delphacodes [1] = experiment: Insecticidal activity against Delphacodes striatellus assessed as mortality at 10 ppm by test tube method; format: functional
Spodoptera litura [2] = experiment: Insecticidal activity against Spodoptera litura assessed as mortality at 50 ppm by filter paper method; format: functional
[3] = Acute toxicity in po dosed Mus musculus ddY (mouse); format: organism-based; conditions: in vivo, read-out: LC50 (the source's name)
Spodoptera litura [4] = experiment: Insecticidal activity against Spodoptera litura assessed as mortality by filter paper method; format: functional
Delphacodes [5] = experiment: Insecticidal activity against Delphacodes striatellus assessed as mortality at 50 ppm by test tube method; format: functional

CCOC(=O)CC(SP(=S)(OC)OC)C(=O)OCC (stereo not given) [MALATHION]
mortality at 10 ppm (Delphacodes [1]): 77%
mortality at 50 ppm (Spodoptera litura [2]): 100%
LD50 [3]: 347 mg/kg
LC50 (Spodoptera litura [4]): 8.3 µg/mL (≈ 25.1 µM)
mortality at 50 ppm (Delphacodes [5]): 100%
